The nature of one series: in vitro. The class given is in vitro ADME.
The target of the next series is T1, QR2 (Mesocricetus auratus, UniProt A0ABM2YAB8).
T1 sequence (A0ABM2YAB8 1-231): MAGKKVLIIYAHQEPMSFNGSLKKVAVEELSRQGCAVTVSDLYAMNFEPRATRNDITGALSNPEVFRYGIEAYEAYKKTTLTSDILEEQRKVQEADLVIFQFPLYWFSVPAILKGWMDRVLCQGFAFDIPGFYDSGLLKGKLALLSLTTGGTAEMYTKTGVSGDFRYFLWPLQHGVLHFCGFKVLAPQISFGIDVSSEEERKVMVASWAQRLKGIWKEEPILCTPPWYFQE
Put plainly: biochemical. How it is done: The QR2 experiments were performed in membrane homogenates of hamster brains (https://www.eurofins.fr, catalog ref. 0088). […] First, radioligand displacement was measured at a fixed compound concentration (10 μM) in each receptor.

Another series in a line: Thermodynamic solubility. The class given is physicochemical. As to conditions: phosphate buffer pH 7.4.
A short description of series [1]: In vitro glutathione conjugation (LC-IT-MS). The series is classed as in vitro ADME. The settings on record: 100 μM, GSH 1 mM, with or without GST, 37 °C, 1 h. Here is the method:
As the control, nonenzymatic reaction (mixture lacking GST) was also performed.
The reaction was maintained at 37 °C for 1 h. As a control, the nonenzymatic reaction mixture (mixture lacking GST) was incubated for 1 h at 37 °C. The reactions were stopped by adding 100 μL of 20% trifluoroacetic acid. The samples were prepared for analysis by adding 400 μL of a 50:50 mixture of MeOH/CH3CN. The reaction mixtures were analyzed using an API QSTAR pulsar I LC–MS/MS system (Applied Biosystems, Madrid, Spain) equipped with an electrospray ionization source and connected to a LC system 1100 series (Agilent Technologies, Madrid, Spain). […] The LC-IT-MS was operated in the positive ion mode.

The target in the next series is T2, hMAO-A (Homo sapiens, UniProt P21397).
T2 sequence (P21397 1-527): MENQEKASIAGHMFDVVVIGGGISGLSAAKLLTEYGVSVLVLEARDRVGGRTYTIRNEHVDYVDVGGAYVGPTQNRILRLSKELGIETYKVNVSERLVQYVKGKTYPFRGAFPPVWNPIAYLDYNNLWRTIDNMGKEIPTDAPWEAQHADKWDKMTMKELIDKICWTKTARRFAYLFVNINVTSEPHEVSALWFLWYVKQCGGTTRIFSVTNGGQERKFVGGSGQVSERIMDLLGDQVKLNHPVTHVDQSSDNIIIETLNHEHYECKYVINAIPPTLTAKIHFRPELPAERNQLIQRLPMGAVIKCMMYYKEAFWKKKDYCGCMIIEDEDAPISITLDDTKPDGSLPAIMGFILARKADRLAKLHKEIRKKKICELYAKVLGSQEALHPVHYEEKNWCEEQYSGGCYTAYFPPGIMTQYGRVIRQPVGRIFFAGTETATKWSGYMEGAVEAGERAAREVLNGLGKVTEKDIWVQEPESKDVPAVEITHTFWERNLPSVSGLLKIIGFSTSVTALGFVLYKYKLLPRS
Nature of the series: biochemical. The settings on record: read-out: hMAO-A (IC50); recombinant hMAO-A, p-tyramine substrate. How it is done: (§1) The hMAO-A/B inhibition of all compounds was determined using the Amplex Red MAO assay kit.
(§2) Assays were performed following the general procedure previously described.[98] […] The specific fluorescence emission was calculated after subtracting the background activity, which was determined from wells containing all components except the hMAO isoforms, which were replaced with PBS.

The target in another series is T3, hMAO-B (Homo sapiens, UniProt P27338).
T3 sequence (P27338 1-520): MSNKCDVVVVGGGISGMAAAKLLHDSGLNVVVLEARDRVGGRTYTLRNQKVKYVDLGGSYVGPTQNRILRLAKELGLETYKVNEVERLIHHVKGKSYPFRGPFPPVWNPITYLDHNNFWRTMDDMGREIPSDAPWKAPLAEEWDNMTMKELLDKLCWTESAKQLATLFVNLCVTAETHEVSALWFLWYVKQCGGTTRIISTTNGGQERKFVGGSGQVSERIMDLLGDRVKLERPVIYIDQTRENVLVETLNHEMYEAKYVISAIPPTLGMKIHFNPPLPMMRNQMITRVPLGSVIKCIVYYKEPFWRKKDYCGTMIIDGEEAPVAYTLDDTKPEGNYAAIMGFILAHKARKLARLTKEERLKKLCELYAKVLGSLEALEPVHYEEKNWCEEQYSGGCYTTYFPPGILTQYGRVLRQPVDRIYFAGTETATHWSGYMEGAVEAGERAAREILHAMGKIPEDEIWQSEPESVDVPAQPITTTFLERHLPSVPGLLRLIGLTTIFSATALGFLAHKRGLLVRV
Put plainly: biochemical. As to conditions: read-out: hMAO-B (IC50); recombinant hMAO-B, p-tyramine substrate. Here is the method:
as §1, §2

A short description of series [2]: Oxygen radical absorbance capacity (ORAC-FL) assay. The settings on record: trolox = 1.0.
The test system of another series is adult mice NSCs. Nature of the series: Neurogenic studies in SGZ-derived neurospheres. The settings on record: 10 μM. The series is classed as cell-based, mouse. Here is the method:
Adult mice NSCs were isolated from SGZ of the dentate gyrus of the hippocampus and grown as free-floating neurospheres (NS).[72],[78] The neurogenic potential of each compound was determined using fluorescence confocal microscopy by quantifying the expression of two well-known neuronal markers: human β-III-tubulin (TuJ-1 clone) and microtubule-associated protein 2 (MAP-2). TuJ-1 is expressed in immature neurons, whereas the expression of MAP-2 indicates a consolidated mature neuronal stage.[79] Given that neurogenesis involves not only the proliferation of NSC but also the migration of newly generated cells, the greatest migration distance promoted by each compound was also measured (Figure 8).
Adult male C57BL/6 mice (3 months old) were used in order to determine neurogenesis activity. […] DAPI staining was used as a nuclear marker. Fluorescent representative images were acquired with a Nikon fluorescence microscope 90i coupled to a digital camera Qi. The microscope configuration was adjusted to produce the optimum signal-to-noise ratio. […] Quantification was undertaken using the image analySIS software (Soft Imaging System Corp., Münster, Germany) and normalized to total nuclei (DAPI-stained). The intensity of immunostaining of neurites from TuJ1-labeled cells and the number of MAP-2-positive cells were estimated from nine neurospheres per condition over three independent experiments. The outgrowth of the neurosphere cells was examined under a phase-contrast microscope and the farthest distance of cell migration was calculated from the edge of the sphere. At least 10 plated neurospheres per treatment were analyzed.

Several values for one entry are separate records, joined by “and”; a condition that tells them apart may be missing. Equal entries are not always repeated. Entries after “also recorded” stand apart in the source; their conditions may differ.

In the case of `C#CCn1nc(/C=C/c2ccc(OC)cc2)oc1=O` [4e, 5-[(E)-2-(4-Methoxyphenyl)ethenyl]-3-(prop-2-yn-1-yl)-1,3,4-oxadiazol-2(3H)-one], the Papp at 240 min, 100 μg mL^–1 in the series “in vitro” (PAMPA, pH 7.4, class from PAMPA-BBB Pe, read-out: CNS-permeability prediction) is over 4 ×10⁻⁶ cm/s. Also, the “PAMPA-BBB (Pe, 10^–6 cm s^–1)” value in the series “in vitro” (porcine brain lipid, PBS/EtOH (70:30), 240 min, 25 °C) is 8.0 ± 0.5 10^–6 cm s^–1. For the same compound, the IC50 against QR2 is 0.57 ± 0.04 µM; at hMAO-A, over 50 µM; on hMAO-B, 8.05 ± 1.82 µM. In addition, the thermodynamic solubility in the series “Thermodynamic solubility” is 76.1 µM and 19.5 µg/mL. For the same compound, the GSH adduct formation result in series [1] is on record as “no peaks corresponding to GS-4e adducts were found”. Further, in series [2], the “ORAC (trolox equiv)” value is under 0.1 trolox equiv. The “TuJ-1 and MAP-2 marked cells” value in the series with adult mice NSCs was “clearly increased; also recorded: highest expression of young cells (TuJ-1) and mature neurons (MAP-2)”. The cell migration distance entry in the series with adult mice NSCs was “extended; also recorded: greatest distance of cell migration”.
